Measurements: the METLIN SMRT retention time set (Domingo-Almenara et al. 2019)

Experiment: gradient 5% acetonitrile 3 min, to 50% in 2 min, to 85% in 15 min, held 3 min, 100 µL/min
Conditions: column: Zorbax Extend-C18 2.1 x 50 mm; eluents: water / acetonitrile, 0.1% formic acid
Outline: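 Mixtures of ~100 pure standards were chromatographed on a Zorbax Extend-C18 column (2.1 × 50 mm, 1.8 μm) at 100 μL/min using water and acetonitrile, each with 0.1% formic acid. Detection used a quadrupole time-of-flight mass spectrometer in positive and negative ionization mode, and data collection spanned 3 months. Retention time was obtained from adduct peaks picked computationally and each checked manually.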

Row | Structure (SMILES) | RP-LC retention time [s]
1 | Cc1cc(-c2nnc(NC(=O)CS(=O)(=O)c3ccc(Cl)cc3)o2)nn1C | 677
2 | CCCSCCCNC(=O)Cn1nc(-n2cccc2)c2c(C)cc(C)nc21 | 1050
3 | O=C(Nc1ccc2c(c1)OCCO2)c1cccc2c1CCN2C(=O)Nc1ccc(F)cc1 | 909
4 | CCOc1nc2ccccc2nc1N1CCCC(C(=O)N2CCCC2)C1 (configuration not stated) | 1070
5 | CCc1cc(=O)n(CC(=O)N2CCc3ccccc32)c(N)n1 | 627
6 | CCOC(=O)C1CCN(C(=O)c2nnc(-c3ccc(S(=O)(=O)N(C)C)cc3)o2)CC1 | 829
7 | CCOc1ccc(N(C)C(=O)C2CCN(S(=O)(=O)c3ccc4c(c3)sc(=O)n4C)CC2)cc1 | 885
8 | COc1ccc(NC(=O)Cn2nc3c(Oc4ccc(Cl)cc4)nccn3c2=O)cc1 | 832
9 | CSc1ncccc1C(=O)N1CCc2cc(-c3ccno3)ccc21 | 871
10 | CC(=O)c1ccc(S(=O)(=O)N2CCC(CN3CCCC(C)C3)CC2)cc1 (configuration not stated) | 634
11 | Cn1ccc2cc(S(=O)(=O)N3CCCC(C(=O)NCCC4=CCCCC4)C3)ccc21 (configuration not stated) | 1040
12 | Cc1ccccc1-n1ccn(Cc2nc(-c3ccccc3)no2)c(=O)c1=O | 809
13 | Cc1nc(-n2nc(C)c(Cl)c2C)sc1C(=O)N1CCOCC1 | 953
14 | COC(=O)Cn1nc(-c2nc(-c3cccc(Cl)c3)no2)ccc1=O | 960
15 | CCOc1ccc(NC(=O)N2C[C@H]3C[C@H](C2)[C@H]2CCCC(=O)N2C3)cc1 | 654
16 | CCOC(=O)c1[nH]c(C)c(CCC(=O)N2CCC(C(=O)NC3CCCCC3)CC2)c1C | 778
17 | Cc1cccc(-c2noc(C3CCCN3S(=O)(=O)c3ccc(C)c(C)c3)n2)c1 (configuration not stated) | 1210
18 | Cc1ccc2c(=O)c3cccc(CC(=O)O)c3oc2c1C | 860
19 | Cc1ccc(-c2nc3ccccc3[nH]2)cc1NC(=O)CC(C)C | 656
20 | COCCc1nncn1C1CN(Cc2cccc(OC(F)(F)F)c2)C1 | 606
21 | CCC(CC)NC(=O)C1CCN(c2cn[nH]c(=O)c2)CC1 | 604
22 | Cc1cc(N(C)C)n2nc(CN3CCN(c4ccccc4)CC3)nc2n1 | 607
23 | Cc1cc2[nH]c(C(=O)Nc3ccc(C)c(F)c3)c(CN3CCOCC3)c2s1 | 738

Row | Structure (SMILES) | RP-LC retention time [s]
24 | CCn1c(C(=O)Nc2cccc(C)n2)cc2c(=O)oc3ccccc3c21 | 891
25 | Cc1ccc(-c2csc(NC(=O)c3ccc(Br)cc3)n2)c(C)c1 | 1270
26 | CC(C)CNc1nc(-c2ccc([N+](=O)[O-])cc2)nc2ccccc12 | 821
27 | COc1ccccc1NS(=O)(=O)c1ccc(-c2c(C)noc2C)cc1 | 924
28 | Cc1nnc2ccc(-c3noc(Cc4ccccc4Br)n3)cn12 | 838
29 | Cc1ccc(S(=O)(=O)N2CCC(CC(=O)NC(C)c3ccccc3)CC2)cc1 (configuration not stated) | 917
30 | Cc1ccc(Cl)cc1NC(=O)N1CCC(n2c(-c3ccco3)nc3cccnc32)C1 (configuration not stated) | 835
31 | CC(C)C[C@H]1C(=O)N2CCC[C@H]2[C@]2(O)O[C@](NC(=O)[C@@H]3C=C4c5cccc6[nH]c(Br)c(c56)CC4N(C)C3)(C(C)C)C(=O)N12 (some centres not stated) | 830
32 | CC(C)n1c(=O)sc2cc(S(=O)(=O)N3CCC(C(=O)Nc4cccc(C#N)c4)CC3)ccc21 | 697
33 | Cc1ccccc1NC(=O)Nc1ccc2nncn2c1 | 668
34 | COc1ccc(OC)c(CNC(=O)CCC(=O)N2CCCn3nc(C)cc32)c1 | 654
35 | CC(=O)Cc1nsc(NC(=O)c2ccc(-c3cccc(Cl)c3)o2)n1 | 866
36 | COc1ccc(-n2ccn3cc(-c4ccccc4)nc3c2=O)cc1Cl | 873
37 | CCOC(=O)c1cc(NC(=O)Nc2cccc(OC)c2)c(C)nc1C | 701
38 | O=C(Cc1cccs1)NCC(c1ccsc1)N1CCCC1 (configuration not stated) | 558
39 | CC(C)C(=O)N1CCc2c(c(C(=O)N3CCC(C(=O)N4CCCCCC4)CC3)nn2C)C1 | 656
40 | Cc1ccc(CNC(=O)c2cc(-c3ccncc3)cn2C)cc1C | 672
41 | CCCNS(=O)(=O)c1cc2n(c1)CCCN(CC)C2=O | 642
42 | O=C(c1noc2c1CCCCC2)N1CCN(c2ccccn2)CC1 | 632
43 | Cn1nc(-c2nnc(-c3ccccc3)o2)c2c1CCN(S(=O)(=O)c1cccc(Cl)c1)C2 | 990
44 | COC(=O)c1ccc(NC(=O)CSc2cc(N3CCN(c4ccccc4OC)CC3)ncn2)cc1 | 970
45 | Cc1cccc(CNC(=O)CN2CCN(Cc3ccc(F)cc3)C2=O)c1 | 831
46 | O=C(c1ccccc1OCC1CCCN(C2CCC2)C1)N1CCCCC1 (configuration not stated) | 632

Row | Structure (SMILES) | RP-LC retention time [s]
47 | Cc1cccc(NS(=O)(=O)c2cc3n(c2)CCCN(C)C3=O)c1 | 695
48 | Cc1cc(S(=O)(=O)N2CCN(c3cnn4c(C)nnc4c3)CC2)ccc1F | 708
49 | O=C(NC1CCCCC1)C1CCCN(S(=O)(=O)c2cc(-c3noc(C4CCCC4)n3)cs2)C1 (configuration not stated) | 1220
50 | C=CCn1c(=O)c2ccccc2n(Cc2nc(-c3cc(OC)c(OC)c(OC)c3)no2)c1=O | 948
51 | COCc1cc(=O)n(CC(=O)Nc2cccc(Cl)c2)c(N)n1 | 635
52 | Cc1ccc(-c2csc(-n3nc(C)c(CC(=O)N4CCCC4)c3C)n2)cc1 | 1090
53 | CC(C)c1nn2c(S(=O)(=O)NC3CCCC3)c(C(C)C)nc2s1 | 1050
54 | COc1cccc(CNC(=O)N2CCCC2c2cc(C)no2)c1 (configuration not stated) | 706
55 | O=C(CCc1c(-c2ccc(Br)cc2)nc2ccccn12)NCCc1ccco1 | 678
56 | CSc1ccc(CNC(=O)Cc2nnc(-c3ccc4ncccc4c3)o2)cc1 | 716
57 | CN1CCCn2nc(C3CCN(C(=O)Nc4cccc(C#N)c4)CC3)cc2C1=O | 656
58 | Cc1[nH]c(C(=O)N2CCCC(C(=O)NCCCN3CCCCCC3)C2)c(C)c1C(=O)OC(C)C (configuration not stated) | 650
59 | Cc1ccc(Cl)cc1NC(=O)N(C)CC1CCOC1 (configuration not stated) | 757
60 | O=C(Nc1cccs1)Nc1ccccc1NC(=O)c1ccco1 | 716
61 | CNC(=O)[C@@H]1C[C@H](Oc2cccnc2)CN1C(=O)Cn1c(=O)oc2ccccc21 | 582
62 | O=C(Cn1c(=O)oc2ccc(C(=O)N3CCCCC3)cc21)N1CCc2ccccc2C1 | 804
63 | COc1cccc(C(=O)NCc2nn(C)c3ccccc23)c1 | 779
64 | Cc1noc(C2CN(C(=O)CCC(C)C)CC23CCOCC3)n1 (configuration not stated) | 678
65 | CN1CCCCCC(O)c2cc(C(=O)NCCC3=CCCCC3)ccc21 (configuration not stated) | 703
66 | CCC1CCCCN1C(=O)c1cnc2nc(C)ccc2c1Nc1ccc(OC)cc1OC (configuration not stated) | 667
67 | Cc1cc(F)ccc1NS(=O)(=O)c1cc(-c2[nH]ncc2C(=O)N2CCOCC2)oc1C | 678
